Data from publication PMC8742467, “Therapeutical interference with the epigenetic landscape of germ cell tumors: a comparative drug study and new mechanistical insights” (Clinical Epigenetics, 2022).

Test system: histone modifications in 2102EP cells
Assay: Mass spectrometry analysis of histone modifications (Mod Spec)
Format: cell-based, Human
Settings: 2102EP cells; Mod Spec raw data
Description: 2102EP cells were treated with the EC50 concentrations for Quisinostat, JIB-04, Chaetocin, MZ-1, LP99, PRT4165, GSK343 and DMSO as solvent control. The cells were harvested via trypsinization after 16 h. The mass spectrometric analysis of histone modifications was outsourced to the Mod Spec service by Active Motif (Carlsbad, CA, USA). Histone extraction and mass spectrometric analysis was performed as described previously. Raw data were transformed into z-scores as the input. The heatmap was generated in R using ‘pheatmap’ with default settings and provided by Active Motif.

In the case of `Cc1cc(=O)n(C)c2cc(N3C(=O)CC[C@H](NS(=O)(=O)CC(C)C)[C@H]3c3ccc(Cl)cc3)ccc12` [LP99], the “H1.4: K25AC, % of peptide pool” value is reported as 0.009028%, the “H1.4: K25ME1, % of peptide pool” value is reported as 2.269% and the “H1.4: K25ME2, % of peptide pool” value is reported as 0.02267%. The “H1.4: K25ME3, % of peptide pool” value was 0.00557%, the “H1.4: K25UN, % of peptide pool” value was 97.6933% and the “H2A1: K13AC, % of peptide pool” value was 0.01093%. The “H2A1: K13UN, % of peptide pool” value was 99.9891%, the “H2A1: K15AC, % of peptide pool” value was 0.001748% and the “H2A1: K15UB, % of peptide pool” value was 0%. For the same compound, the “H2A1: K15UN, % of peptide pool” value was 99.9983%, the “H2A3: K13AC, % of peptide pool” value was 0.03196% and the “H2A3: K13UN, % of peptide pool” value was 99.968%. The “H2A3: K15AC, % of peptide pool” value was 0.03362%, the “H2A3: K15UB, % of peptide pool” value was 0% and the “H2A3: K15UN, % of peptide pool” value was 99.9664%. For the same compound, the “H2A: K5AC, % of peptide pool” value was 12.5375%, the “H2A: K5UN, % of peptide pool” value was 87.4625% and the “H2A: K9AC, % of peptide pool” value was 1.353%. For the same compound, the “H2A: K9UN, % of peptide pool” value was 98.6475%, the “H2A: K36AC, % of peptide pool” value was 0.0347% and the “H2A: K36UN, % of peptide pool” value was 99.9653%. The “H3: K9AC, % of peptide pool” value was 0.6876%, the “H3: K9ME1, % of peptide pool” value was 38.1257% and the “H3: K9ME2, % of peptide pool” value was 23.7135%. For the same compound, the “H3: K9ME3, % of peptide pool” value was 2.367%, the “H3: K9UN, % of peptide pool” value was 35.1066% and the “H3: K14AC, % of peptide pool” value was 29.2531%. The “H3: K14UN, % of peptide pool” value was 70.7469%, the “H3: K18AC, % of peptide pool” value was 10.1375% and the “H3: K18ME1, % of peptide pool” value was 0.2014%. For the same compound, the “H3: K18UN, % of peptide pool” value was 89.6611%, the “H3: K23AC, % of peptide pool” value was 16.6835% and the “H3: K23ME1, % of peptide pool” value was 0.02213%. The “H3: K23UN, % of peptide pool” value was 83.2943%, the “H3: K56AC, % of peptide pool” value was 0.1265% and the “H3: K56ME1, % of peptide pool” value was 0.3038%. The “H3: K56UN, % of peptide pool” value was 99.5697%, the “H3: K64AC, % of peptide pool” value was 0.01464% and the “H3: K64UN, % of peptide pool” value was 99.9854%. For the same compound, the “H3: K79AC, % of peptide pool” value was 0.6828%, the “H3: K79ME1, % of peptide pool” value was 14.7289% and the “H3: K79ME2, % of peptide pool” value was 6.113%. The “H3: K79ME3, % of peptide pool” value was 8.372%, the “H3: K79UN, % of peptide pool” value was 70.1029% and the “H3: K122AC, % of peptide pool” value was 0.1106%. The “H3: K122UN, % of peptide pool” value was 99.8894%, the “H3: Q19ME1, % of peptide pool” value was 0.008159% and the “H3: Q19UN, % of peptide pool” value was 99.9918%. The “H3: Q55ME1, % of peptide pool” value was 0.125%, the “H3: Q55UN, % of peptide pool” value was 99.875% and the “H3: R42ME2, % of peptide pool” value was 2.022%. The “H3: R42UN, % of peptide pool” value was 97.9783%, the “H3: R49ME2, % of peptide pool” value was 5.836% and the “H3: R49UN, % of peptide pool” value was 94.1642%. The “H3R2UN: K4AC, % of peptide pool” value was 0.0493% and the “H3R2UN: K4ME1, % of peptide pool” value was 17.3555%.
